Test results as given in patent publication US20230023559A1, “ARYLMETHYLENE HETEROCYCLIC COMPOUNDS AS KV1.3 POTASSIUM SHAKER CHANNEL BLOCKERS” (D. E. Shaw Research, LLC, priority 2019, published 2023).

The compounds below were run against T1, Kv1.3 potassium channel (Homo sapiens, UniProt P22001) (assay: Kv1.3 potassium channel blocker activity, automated whole-cell patch clamp (Patchliner)). Conditions: CHO-K1 cells stably expressing Kv1.3; whole cell current inhibition; read-out: Kv1.3_IC50.
T1 construct: expressed in transfected cells
Format: cell-based
Procedure: The assay described below is used to evaluate the disclosed compound's activities as Kv1.3 potassium channel blockers.
CHO-K1 cells stably expressing Kv1.3 were grown in DMEM containing 10% heat-inactivated FBS, 1 mM Sodium Pyruvate, 2 mM L-Glutamine and G418 (500 μg/ml).
All compounds were dissolved in DMSO at 30 mM.
The currents were evoked by applying 100 ms depolarizing pulses from −90 mV (holding potential) to +40 mV were applied with 0.1 Hz frequency. […] 10 second breaks were used between pulse trains (see Table A below).
Data were sampled at 10 kHz without filtering. Passive leak currents were subtracted online using a P/4 procedure (HEKA Elektronik Dr. Schulze GmbH). […] Total compound incubation time before the next pulse train was not longer than 10 seconds. Peak current inhibition was observed during compound equilibration.

T1 sequence (P22001 whole entry): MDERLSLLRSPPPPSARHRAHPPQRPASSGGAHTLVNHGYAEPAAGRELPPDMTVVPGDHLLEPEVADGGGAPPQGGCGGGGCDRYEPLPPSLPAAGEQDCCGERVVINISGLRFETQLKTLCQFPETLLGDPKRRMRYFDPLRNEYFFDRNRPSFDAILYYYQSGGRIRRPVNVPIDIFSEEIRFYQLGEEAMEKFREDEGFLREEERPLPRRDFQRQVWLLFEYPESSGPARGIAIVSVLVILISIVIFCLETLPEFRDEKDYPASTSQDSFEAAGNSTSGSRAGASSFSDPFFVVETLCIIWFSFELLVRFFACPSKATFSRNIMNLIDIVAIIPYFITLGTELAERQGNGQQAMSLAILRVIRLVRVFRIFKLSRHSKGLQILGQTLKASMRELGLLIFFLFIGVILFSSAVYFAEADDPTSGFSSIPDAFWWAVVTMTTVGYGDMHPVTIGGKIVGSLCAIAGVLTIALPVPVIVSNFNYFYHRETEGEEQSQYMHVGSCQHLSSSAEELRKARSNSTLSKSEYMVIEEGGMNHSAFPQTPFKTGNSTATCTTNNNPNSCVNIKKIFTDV

SMILES	IC50
CC(=O)NC(c1cc(Cl)c(Cl)cc1O)C1CCN(C(=O)[C@@H]2CCNC2)CC1 (stereo partly drawn) [Compound 108, N-((4,5-dichloro-2-hydroxyphenyl)(1-((R)-pyrrolidine-3-carbonyl)piperidin-4-yl)methyl)acetamide Trifluoroacetic Acid]	< 10 µM
CN1CC(C(=O)N2CCC([C@@H](N)c3cc(Cl)c(Cl)cc3O)CC2)OCC1=O (stereo partly drawn) [Compound 268, 6-[4-[(R)-amino(4,5-dichloro-2-hydroxyphenyl)methyl]piperidine-1-carbonyl]-4-methylmorpholin-3-one trifluoroacetic acid]	< 0.5 µM
C[C@@](O)(c1cc(Cl)c(Cl)cc1O)C1CCNCC1 (single isomer, unassigned; isomer 1) [Compound 25, 4,5-dichloro-2-(1-hydroxy-1-(piperidin-4-yl)ethyl)phenol isomer 1]	< 10 µM
CC1(C)C[C@H]([C@H](N)c2cc(Cl)c(Cl)cc2O)CCN1 (single isomer, unassigned; diastereoisomer 2) [Compound 73, 2-(amino(2,2-dimethylpiperidin-4-yl)methyl)-4,5-dichlorophenol Trifluoroacetic Acid Diastereoisomer 2]	< 10 µM
CS(=O)(=O)N1CCC(C(N)c2cc(Cl)c(Cl)cc2O)CC1 (stereo not shown) [Compound 71, 2-[amino(1-methanesulfonylpiperidin-4-yl)methyl]-4,5-dichlorophenol Trifluoroacetic Acid]	< 10 µM
NC(c1cc(Cl)c(Cl)cc1O)C1CCN(C2CCNC2=O)CC1 (stereo not shown) [Compound 65, 3-(4-(amino(4,5-dichloro-2-hydroxyphenyl)methyl)piperidin-1-yl)pyrrolidin-2-one Trifluoroacetic Acid]	< 10 µM
CC(=O)N1CCC(C(c2cc(Cl)c(Cl)cc2O)N2CCCC2)CC1 (stereo not shown) [Compound 23, 1-(4-((4,5-dichloro-2-hydroxyphenyl)(pyrrolidin-1-yl)methyl)piperidin-1-yl)ethanone Trifluoroacetic Acid]	< 10 µM
NC(c1cc(Cl)c(Cl)cc1O)C1CCN(C(=O)C(F)(F)F)CC1 (stereo not shown) [Compound 77, 1-[4-[amino(4,5-dichloro-2-hydroxyphenyl)methyl]piperidin-1-yl]-2,2,2-trifluoroethan-1-one Trifluoroacetic Acid]	< 10 µM
Cc1cc(CN2CCC(C(N)c3cc(Cl)c(Cl)cc3O)CC2)no1 (stereo not shown) [Compound 58, 2-[amino([1-[(5-methyl-1,2-oxazol-3-yl)methyl]piperidin-4-yl])methyl]-4,5-dichlorophenol Trifluoroacetic Acid]	< 10 µM
Cc1[nH]c(=O)ccc1C(=O)N1CCC([C@@H](N)c2cc(Cl)c(Cl)cc2O)CC1 [Compound 230, (R)-5-(4-(amino(4,5-dichloro-2-hydroxyphenyl)methyl)piperidine-1-carbonyl)-6-methylpyridin-2(1H)-one]	< 10 µM
O=S(=O)([C@@H]1CCNC1)N1CCC([C@H](O)c2cc(Cl)c(Cl)cc2O)CC1 (single isomer, unassigned; isomer 2) [Compound 125, 4,5-dichloro-2-(hydroxy(1-(pyrrolidin-3-ylsulfonyl)piperidin-4-yl)methyl)phenol Isomer 2]	< 10 µM
Cc1cc(O)c([C@H](N)C2CCN(C(=O)c3ccc4c(c3)CCC(=O)N4)CC2)cc1Cl [Compound 259, 6-[4-[(R)-amino (5-chloro-2-hydroxy-4-methylphenyl)methyl]piperidine-1-carbonyl]-3,4-dihydro-1H-quinolin-2-one trifluoroacetic acid]	< 0.5 µM
O=C(NC(c1cc(Cl)c(Cl)cc1O)C1CCNCC1)C(F)(F)F (stereo not shown) [Compound 22, N-((4,5-dichloro-2-hydroxyphenyl)(piperidin-4-yl)methyl)-2,2,2-trifluoroacetamide]	< 10 µM
NC(c1cc(Cl)c(Cl)cc1O)C1CCN(CC(F)F)CC1 (stereo not shown) [Compound 62, 2-(amino(1-(2,2-difluoroethyl)piperidin-4-yl)methyl)-4,5-dichlorophenol Trifluoroacetic Acid]	< 10 µM
CCNC(c1cc(Cl)c(Cl)cc1O)C1CCN(C(=O)C(O)CO)CC1 (stereo not shown) [Compound 182, 1-[4-[(4,5-dichloro-2-hydroxyphenyl)(ethylamino)methyl]piperidin-1-yl]-2,3-dihydroxypropan-1-one Trifluoroacetic Acid]	< 10 µM
CC(C)C[C@@H](N)C(=O)N1CCC([C@@H](N)c2cc(Cl)c(Cl)cc2O)CC1 [Compound 94, (R)-2-amino-1-(4-((R)-amino(4,5-dichloro-2-hydroxyphenyl)methyl)piperidin-1-yl)-4-methylpentan-1-one trifluoroacetic acid]	< 0.5 µM
CC[C@H](N)C(=O)N1CCC([C@@H](N)c2cc(Cl)c(Cl)cc2O)CC1 [Compound 91, (S)-2-amino-1-(4-((R)-amino(4,5-dichloro-2-hydroxyphenyl)methyl)piperidin-1-yl)butan-1-one trifluoroacetic acid]	< 0.5 µM
CC[C@@H](N)C(=O)N1CCC([C@@H](N)c2cc(Cl)c(Cl)cc2O)CC1 [Compound 88, (R)-2-amino-1-(4-((R)-amino(4,5-dichloro-2-hydroxyphenyl)methyl)piperidin-1-yl)butan-1-one trifluoroacetic acid]	< 0.5 µM
Cc1cc(O)c([C@H](N)C2CCN(C(=O)c3ccncc3)CC2)cc1Cl [Compound 234, 2-[(R)-amino[1-(pyridine-4-carbonyl)piperidin-4-yl]methyl]-4-chloro-5-methylphenol trifluoroacetic acid]	< 0.5 µM
COCCN1CCC(C(N)c2cc(Cl)c(Cl)cc2O)CC1 (stereo not shown) [Compound 64, 2-(amino(1-(2-methoxyethyl)piperidin-4-yl)methyl)-4,5-dichlorophenol]	< 10 µM
N[C@@H](c1cc(Cl)c(Cl)cc1O)C1CCN(C(=O)c2ccc(=O)[nH]n2)CC1 [Compound 253, 6-[4-[(R)-amino(4,5-dichloro-2-hydroxyphenyl)methyl]piperidine-1-carbonyl]-2H-pyridazin-3-one trifluoroacetic acid]	< 0.5 µM

The next lines start with the values.

IC50	SMILES
< 10 µM	O=C([C@@H]1CCNC1)N1CCC([C@H](O)c2c(O)ccc(Cl)c2Cl)CC1 (single isomer, unassigned) [Compound 321, Trifluoroacetic Acid]
< 10 µM	N[C@@H](c1cc(Cl)c(Cl)cc1O)[C@@H]1CCCN(C(=O)[C@H](O)CO)CC1 (single isomer, unassigned; isomer 1) [Compound 333]
< 10 µM	N[C@@H](c1cc(Cl)c(F)cc1O)C1CCN(C(=O)[C@H](O)CO)CC1 [Compound 285, (2R)-1-[4-[(R)-amino(5-chloro-4-fluoro-2-hydroxyphenyl)methyl]piperidin-1-yl]-2,3-dihydroxypropan-1-one Trifluoroacetic Acid]
< 10 µM	Nc1cnc(C(=O)N2CCC([C@@H](N)c3cc(Cl)c(Cl)cc3O)CC2)cn1 [Compound 307, 2-[(R)-amino[1-(5-aminopyrazine-2-carbonyl)piperidin-4-yl]methyl]-4,5-dichlorophenol trifluoroacetic acid]
< 10 µM	Cc1cc(O)c([C@H](N)C2CCN(C(=O)c3ccc4c(c3)NC(=O)CC4)CC2)cc1Cl [Compound 273, 7-[4-[(R)-amino (5-chloro-2-hydroxy-4-methylphenyl)methyl]piperidine-1-carbonyl]-3,4-dihydro-1H-quinolin-2-one trifluoroacetic acid]
< 10 µM	N[C@H](c1cc(Cl)c(Cl)cc1O)[C@H]1CCN(C(=O)[C@H](O)CO)C1 (single isomer, unassigned; isomer 1) [Compound 308]
< 0.5 µM	Cc1cc(O)c([C@H](N)C2CCN(C(=O)c3cc(Cl)c(=O)n(C)c3)CC2)cc1Cl [Compound 270, 5-[4-[(R)-amino (5-chloro-2-hydroxy-4-methylphenyl)methyl]piperidine-1-carbonyl]-3-chloro-1-methyl-pyridin-2-one trifluoroacetic acid]
< 0.5 µM	CN1C[C@H](C(=O)N2CCC([C@@H](N)c3cc(Cl)c(Cl)cc3O)CC2)OCC1=O (single isomer, unassigned; isomer 1) [Compound 274]
< 0.5 µM	Cc1cc(O)c([C@H](N)C2CCN(C(=O)c3c[nH]c(=O)c4ccccc34)CC2)cc1Cl [Compound 325, 4-[4-[(R)-amino (5-chloro-2-hydroxy-4-methylphenyl)methyl]piperidine-1-carbonyl]-2H-isoquinolin-1-one trifluoroacetic acid]
< 10 µM	N[C@@H](c1cc(Cl)c(Cl)cc1O)[C@H]1CCCN(C(=O)[C@H](O)CO)CC1 (single isomer, unassigned; isomer 2) [Compound 334]
< 10 µM	N[C@H](c1cc(Cl)c(Cl)cc1O)C1CC2CC1CN2C(=O)[C@H](O)CO (stereo partly drawn) [Compound 316, (2R)-1-(5-((S)-amino(4,5-dichloro-2-hydroxyphenyl)methyl)-2-azabicyclo[2.2.1]heptan-2-yl)-2,3-dihydroxypropan-1-one Trifluoroacetic Acid]
< 10 µM	N[C@@H](c1cc(Cl)c(Cl)cc1O)C1C2CCC1CN(C(=O)[C@H](O)CO)C2 (stereo partly drawn) [Compound 313, (2R)-1-[8-[(R)-amino(4,5-dichloro-2-hydroxyphenyl)methyl]-3-azabicyclo[3.2.1]octan-3-yl]-2,3-dihydroxypropan-1-one Trifluoroacetic Acid]
< 10 µM	Cc1cc(O)c([C@H](N)C2CCN(C(=O)c3ccc4c(c3)NC(=O)CO4)CC2)cc1Cl [Compound 269, 6-[4-[(R)-amino (5-chloro-2-hydroxy-4-methylphenyl)methyl]piperidine-1-carbonyl]-2,4-dihydro-1,4-benzoxazin-3-one]
